# US6737383B1, “Herbicidal oxadiazolidines” (priority 1999, dated 2004)
# How the values were obtained:
# [1] = system: bamyardgrass; assay: Test B flood test barnyardgrass; type: in vivo, Echinochloa crus-galli
# Method in brief: (§1)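 Plants were grown to the 2-leaf stage before treatment with test chemical, then held in a greenhouse for twelve to sixteen days. Injury was visually rated against untreated controls on a 0–10 scale, where 0 is no effect and 10 is complete control.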
# [2] = system: wheat; assay: Test B pre/postemergence wheat; type: in vivo, Triticum aestivum
# Method in brief: (§2)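 Herbicidal effect was estimated by eye on a ten-point control scale after plants spent twelve to sixteen days in a greenhouse following soil or foliar treatment. Foliar sprays targeted plants at one to four leaves; all doses were formulated in a non-phytotoxic solvent with surfactant.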
# [3] = system: blackgrass; assay: Test B pre/postemergence blackgrass; type: in vivo, Alopecurus myosuroides
# Method in brief: as §2
# [4] = system: crabgrass; assay: Test B pre/postemergence crabgrass; type: in vivo, Digitaria sanguinalis
# Method in brief: as §2
# [5] = system: wild oat; assay: Test B pre/postemergence wild oat; type: in vivo, Avena fatua
# Method in brief: as §2
# [6] = system: bedstraw; assay: Test B pre/postemergence bedstraw; type: in vivo, Galium aparine
# Method in brief: as §2
# [7] = system: soybean; assay: Test B pre/postemergence soybean; type: in vivo, Glycine max
# Method in brief: as §2
# [8] = system: cocklebur; assay: Test B pre/postemergence cocklebur; type: in vivo, Xanthium strumarium
# Method in brief: as §2
# [9] = system: purple nutsedge; assay: Test B pre/postemergence purple nutsedge; type: in vivo, Cyperus rotundus; details: Postemergence
# Method in brief: as §2
# [10] = system: velvetleaf; assay: Test B pre/postemergence velvetleaf; type: in vivo, Abutilon theophrasti
# Method in brief: as §2
# [11] = system: rice; assay: Test B flood test rice; type: in vivo, Oryza sativa
# Method in brief: as §1
# [12] = system: smallflower flatsedge; assay: Test B flood test smallflower flatsedge; type: in vivo, Cyperus difformis
# Method in brief: as §1
# [13] = system: giant foxtail; assay: Test B pre/postemergence giant foxtail; type: in vivo, Setaria faberii
# Method in brief: as §2
# [14] = system: duck salad; assay: Test B flood test duck salad; type: in vivo, Heteranthera limosa
# Method in brief: as §1
# [15] = system: surinam grass; assay: Test B pre/postemergence surinam grass; type: in vivo, Brachiaria decumbens
# Method in brief: as §2
# [16] = system: corn; assay: Test B pre/postemergence corn; type: in vivo, Zea mays
# Method in brief: as §2
# [17] = system: morningglory; assay: Test B pre/postemergence morningglory; type: in vivo, Ipomoea hederacea
# Method in brief: as §2
# [18] = Rate 62 g/ha, headed Pre-emergence (flood test species), scale 0 to 10 (0 no effect, 10 complete control)
# [19] = Rate 125 g/ha, Pre-emergence, flood test species, scale 0 to 10 where 0 is no effect and 10 is complete control
# [20] = Rate 250 g/ha, Pre-emergence, flood-test species, scale 0 to 10, 0 is no effect, 10 is complete control
# [21] = Rate 500 g/ha, Pre-emergence, flood test species, scale 0 to 10 (0 no effect, 10 complete control)
# [22] = Preemergence, Rate 62 g/ha, scale of 0 to 10 where 0 is no effect and 10 is complete control
# [23] = Preemergence, Rate 250 g/ha, scale of 0 to 10 where 0 is no effect and 10 is complete control
# [24] = Preemergence, Rate 500 g/ha, scale of 0 to 10 where 0 is no effect and 10 is complete control
# [25] = Rate 62 g/ha, Postemergence, scale of 0 to 10 where 0 is no effect and 10 is complete control
# [26] = Rate 125 g/ha, Postemergence, scale 0 to 10
# [27] = Rate 125 g/ha, Preemergence, scale of 0 to 10 where 0 is no effect and 10 is complete control
# [28] = Rate 500 g/ha, Postemergence, scale 0 to 10, 0 no effect, 10 complete control
smiles,measurement,setting,value
Cc1ccccc1-n1c(=O)on(C(=O)N(c2ccc(N(C)C)cc2)C(C)C)c1=O [Compound 237],Barnyardgrass plant response rating,[1]; [18],0
same,Barnyardgrass plant response rating,[1]; [19],0
same,Barnyardgrass plant response rating,[1]; [20],0
same,Barnyardgrass plant response rating,[1]; [21],0
same,Wheat plant response rating,[2]; [22],0
same,Wheat plant response rating,[2]; [23],0
same,"Plant response rating, Wheat",[2]; [24],0
same,Wheat plant response rating,[2]; [25],0
same,Wheat plant response rating,[2]; [26],0
same,Wheat plant response rating,[2]; [27],0
same,"Plant response rating (0 to 10; 0 is no effect, 10 is complete control), Wheat","[2]; Rate 250 g/ha, Postemergence",0
same,Wheat plant response rating,[2]; [28],0
same,Blackgrass plant response rating,[3]; [22],0
same,Blackgrass plant response rating,[3]; [23],0
same,"Plant response rating, Blackgrass",[3]; [24],0
same,Blackgrass plant response rating,[3]; [25],0
same,Blackgrass plant response rating,[3]; [26],0
same,Blackgrass plant response rating,[3]; [27],0
same,"Plant response rating (0 to 10; 0 is no effect, 10 is complete control), Blackgrass","[3]; Rate 250 g/ha, Postemergence",0
same,Blackgrass plant response rating,[3]; [28],0
same,Crabgrass plant response rating,[4]; [22],0
same,Crabgrass plant response rating,[4]; [23],2
same,"Plant response rating, Crabgrass",[4]; [24],3
same,Crabgrass plant response rating,[4]; [25],0
same,Crabgrass plant response rating,[4]; [26],0
same,Crabgrass plant response rating,[4]; [27],0
same,"Plant response rating (0 to 10; 0 is no effect, 10 is complete control), Crabgrass","[4]; Rate 250 g/ha, Postemergence",0
same,Crabgrass plant response rating,[4]; [28],0
same,Wild oats plant response rating,[5]; [22],0
same,Wild oats plant response rating,[5]; [23],0
same,"Plant response rating, Wild oats",[5]; [24],0
same,Wild oats plant response rating,[5]; [25],0
same,Wild oats plant response rating,[5]; [26],0
same,Wild oats plant response rating,[5]; [27],0
same,"Plant response rating (0 to 10; 0 is no effect, 10 is complete control), Wild oats","[5]; Rate 250 g/ha, Postemergence",0
same,Wild oats plant response rating,[5]; [28],0
same,Bedstraw plant response rating,[6]; [22],0
same,Bedstraw plant response rating,[6]; [23],0
same,"Plant response rating, Bedstraw",[6]; [24],0
same,Bedstraw plant response rating,[6]; [25],0
same,Bedstraw plant response rating,[6]; [26],0
same,Bedstraw plant response rating,[6]; [27],0
same,"Plant response rating (0 to 10; 0 is no effect, 10 is complete control), Bedstraw","[6]; Rate 250 g/ha, Postemergence",2
same,Bedstraw plant response rating,[6]; [28],3
same,Soybean plant response rating,[7]; [22],0
same,Soybean plant response rating,[7]; [23],0
same,"Plant response rating, Soybean",[7]; [24],0
same,Soybean plant response rating,[7]; [25],0
same,Soybean plant response rating,[7]; [26],1
same,Soybean plant response rating,[7]; [27],0
same,"Plant response rating (0 to 10; 0 is no effect, 10 is complete control), Soybean","[7]; Rate 250 g/ha, Postemergence",1
same,Soybean plant response rating,[7]; [28],1
same,Cocklebur plant response rating,[8]; [22],0
same,Cocklebur plant response rating,[8]; [23],0
same,"Plant response rating, Cocklebur",[8]; [24],0
same,Cocklebur plant response rating,[8]; [25],0
same,Cocklebur plant response rating,[8]; [26],0
same,Cocklebur plant response rating,[8]; [27],0
same,"Plant response rating (0 to 10; 0 is no effect, 10 is complete control), Cocklebur","[8]; Rate 250 g/ha, Postemergence",0
same,Cocklebur plant response rating,[8]; [28],0
same,Nutsedge plant response rating,"[9]; Rate 62 g/ha, scale of 0 to 10 where 0 is no effect and 10 is complete control",0
same,Nutsedge plant response rating,"[9]; Rate 125 g/ha, scale 0 to 10",0
same,"Plant response rating (0 to 10; 0 is no effect, 10 is complete control), Nutsedge",[9]; Rate 250 g/ha,0
same,Nutsedge plant response rating,"[9]; Rate 500 g/ha, scale 0 to 10, 0 no effect, 10 complete control",0
same,Velvetleaf plant response rating,[10]; [22],0
same,Velvetleaf plant response rating,[10]; [23],0
same,"Plant response rating, Velvetleaf",[10]; [24],0
same,Velvetleaf plant response rating,[10]; [25],0
same,Velvetleaf plant response rating,[10]; [26],0
same,Velvetleaf plant response rating,[10]; [27],0
same,"Plant response rating (0 to 10; 0 is no effect, 10 is complete control), Velvetleaf","[10]; Rate 250 g/ha, Postemergence",0
same,Velvetleaf plant response rating,[10]; [28],2
same,Rice plant response rating,[11]; [18],0
same,Rice plant response rating,[11]; [19],0
same,Rice plant response rating,[11]; [20],0
same,Rice plant response rating,[11]; [21],0
same,S. Flatsedge plant response rating,[12]; [18],0
same,S. Flatsedge plant response rating,[12]; [19],0
same,S. Flatsedge plant response rating,[12]; [20],0
same,S. Flatsedge plant response rating,[12]; [21],0
same,Giant foxtail plant response rating,[13]; [22],0
same,Giant foxtail plant response rating,[13]; [23],4
same,"Plant response rating, Giant foxtail",[13]; [24],4
same,Giant foxtail plant response rating,[13]; [25],0
same,Giant foxtail plant response rating,[13]; [26],0
same,Giant foxtail plant response rating,[13]; [27],0
same,"Plant response rating (0 to 10; 0 is no effect, 10 is complete control), Giant foxtail","[13]; Rate 250 g/ha, Postemergence",0
same,Giant foxtail plant response rating,[13]; [28],0
same,Ducksalad plant response rating,[14]; [18],0
same,Ducksalad plant response rating,[14]; [19],0
same,Ducksalad plant response rating,[14]; [20],0
same,Ducksalad plant response rating,[14]; [21],0
same,B. signalgrass plant response rating,[15]; [22],0
same,B. signalgrass plant response rating,"[15]; Preemergence, Rate 250 g/ha, scale 0 to 10, 0 is no effect, 10 is complete control",0
same,"Plant response rating, B. signalgrass",[15]; [24],0
same,B. signalgrass plant response rating,[15]; [25],0
same,B. signalgrass plant response rating,"[15]; Rate 125 g/ha, Postemergence, scale 0 (no effect) to 10 (complete control)",0
same,B. signalgrass plant response rating,[15]; [27],0
same,"Plant response rating (0 to 10; 0 is no effect, 10 is complete control), B. signalgrass","[15]; Rate 250 g/ha, Postemergence",0
same,B. signalgrass plant response rating,[15]; [28],0
same,Corn plant response rating,[16]; [22],0
same,Corn plant response rating,[16]; [23],0
same,"Plant response rating, Corn",[16]; [24],0
same,Corn plant response rating,[16]; [25],0
same,Corn plant response rating,[16]; [26],0
same,Corn plant response rating,[16]; [27],0
same,"Plant response rating (0 to 10; 0 is no effect, 10 is complete control), Corn","[16]; Rate 250 g/ha, Postemergence",0
same,Corn plant response rating,[16]; [28],0
same,Morningglory plant response rating,[17]; [22],0
same,Morningglory plant response rating,[17]; [23],0
same,"Plant response rating, Morningglory",[17]; [24],2
same,Morningglory plant response rating,[17]; [25],2
same,Morningglory plant response rating,[17]; [26],2
same,Morningglory plant response rating,[17]; [27],0
same,"Plant response rating (0 to 10; 0 is no effect, 10 is complete control), Morningglory","[17]; Rate 250 g/ha, Postemergence",3
same,Morningglory plant response rating,[17]; [28],6
